Source: ChEMBL document CHEMBL1133305, “Phenyloxazoles and phenylthiazoles as benzamide bioisosteres: synthesis and dopamine receptor binding profiles” (Bioorg Med Chem Lett, 2000)

Experiments:
D(2) dopamine receptor [1] = target: T1, D(2) dopamine receptor (Homo sapiens, UniProt P14416); experiment: In vitro displacement of [3H]spiperone from the recombinant human dopamine receptor D2 short form expressed in CHO cells; assay type: cell-based
D(1A) dopamine receptor = D(1A) dopamine receptor (Bos taurus, UniProt Q95136); experiment: In vitro displacement of [3H]- SCH 23390 from the dopamine receptor D1 of bovine striatal membrane
D(3) dopamine receptor = D(3) dopamine receptor (Homo sapiens, UniProt P35462); experiment: In vitro displacement of [3H]spiperone from the cloned human dopamine receptor D3 stably expressed in CHO cells; assay type: cell-based
D(2) dopamine receptor [2] = target: T1, D(2) dopamine receptor; experiment: In vitro displacement of [3H]spiperone from the recombinant human dopamine receptor D2L stably expressed in CHO cells; assay type: cell-based
D(4) dopamine receptor = target: T2, D(4) dopamine receptor (Homo sapiens, UniProt P21917); experiment: In vitro displacement of [3H]spiperone from the recombinant human dopamine receptor D4 expressed in CHO cells; assay type: cell-based
T2 sequence (P21917 whole entry): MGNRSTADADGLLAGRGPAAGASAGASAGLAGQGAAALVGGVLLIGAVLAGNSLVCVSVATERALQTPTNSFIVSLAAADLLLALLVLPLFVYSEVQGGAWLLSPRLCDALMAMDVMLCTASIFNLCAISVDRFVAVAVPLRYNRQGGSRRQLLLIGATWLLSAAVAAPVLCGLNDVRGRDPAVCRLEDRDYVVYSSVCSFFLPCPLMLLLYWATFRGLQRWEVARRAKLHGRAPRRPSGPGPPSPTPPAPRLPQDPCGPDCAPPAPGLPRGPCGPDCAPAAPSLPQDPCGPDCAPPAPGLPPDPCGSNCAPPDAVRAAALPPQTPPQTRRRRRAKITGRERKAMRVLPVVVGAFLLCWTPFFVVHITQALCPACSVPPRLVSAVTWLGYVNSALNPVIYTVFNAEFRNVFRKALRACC

T1 sequence (P14416 whole entry): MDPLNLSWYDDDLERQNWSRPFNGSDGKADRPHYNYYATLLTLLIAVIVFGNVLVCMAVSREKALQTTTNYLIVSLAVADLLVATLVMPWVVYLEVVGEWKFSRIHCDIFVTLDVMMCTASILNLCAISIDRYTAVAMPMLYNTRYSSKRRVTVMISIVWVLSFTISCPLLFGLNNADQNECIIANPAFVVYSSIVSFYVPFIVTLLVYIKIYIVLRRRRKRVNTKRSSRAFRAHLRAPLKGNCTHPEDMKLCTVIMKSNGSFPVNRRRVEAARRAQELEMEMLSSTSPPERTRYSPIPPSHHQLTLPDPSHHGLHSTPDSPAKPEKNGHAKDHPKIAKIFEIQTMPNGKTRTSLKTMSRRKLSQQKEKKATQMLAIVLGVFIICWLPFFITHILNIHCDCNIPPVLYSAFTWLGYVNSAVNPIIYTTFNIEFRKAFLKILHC
D(3) dopamine receptor, sequence (P35462 whole entry): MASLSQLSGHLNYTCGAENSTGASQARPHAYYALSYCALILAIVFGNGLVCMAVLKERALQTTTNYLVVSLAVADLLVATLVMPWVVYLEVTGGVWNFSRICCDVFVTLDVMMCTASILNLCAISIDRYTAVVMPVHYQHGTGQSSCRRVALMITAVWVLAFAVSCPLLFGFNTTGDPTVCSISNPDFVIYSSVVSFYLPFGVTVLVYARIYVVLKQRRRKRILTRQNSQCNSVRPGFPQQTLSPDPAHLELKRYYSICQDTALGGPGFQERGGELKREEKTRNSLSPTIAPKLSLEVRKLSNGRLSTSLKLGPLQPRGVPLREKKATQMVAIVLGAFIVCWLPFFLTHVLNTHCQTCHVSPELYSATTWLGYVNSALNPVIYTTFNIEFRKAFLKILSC
D(1A) dopamine receptor, sequence (Q95136 whole entry): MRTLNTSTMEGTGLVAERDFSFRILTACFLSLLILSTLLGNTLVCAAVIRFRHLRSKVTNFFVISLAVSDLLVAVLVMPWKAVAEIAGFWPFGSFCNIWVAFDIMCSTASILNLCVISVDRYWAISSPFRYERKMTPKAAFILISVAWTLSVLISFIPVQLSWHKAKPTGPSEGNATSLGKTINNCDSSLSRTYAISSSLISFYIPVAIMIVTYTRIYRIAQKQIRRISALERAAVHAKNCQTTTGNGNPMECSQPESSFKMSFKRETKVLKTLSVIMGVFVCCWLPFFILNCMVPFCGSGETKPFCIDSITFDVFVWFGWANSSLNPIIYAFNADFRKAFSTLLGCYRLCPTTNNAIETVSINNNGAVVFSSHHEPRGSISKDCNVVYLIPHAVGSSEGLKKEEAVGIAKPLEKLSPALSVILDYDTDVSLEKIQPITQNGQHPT

SMILES	Ki (D(2) dopamine receptor [1]) [µM]	Ki (D(1A) dopamine receptor) [µM]	Ki (D(3) dopamine receptor) [µM]	Ki (D(2) dopamine receptor [2]) [µM]	Ki (D(4) dopamine receptor) [µM]	Ki (D(4) dopamine receptor; cho) [µM]
c1ccc(CN2CCC(NCc3coc(-c4ccccc4)n3)CC2)cc1	8.65	30	6.1	14	0.35	–
COc1ccc(Br)cc1-c1nc(CNC2CCN(Cc3ccccc3)CC2)co1	0.63	12.5	0.58	0.94	0.39	–
c1ccc(-c2nc(CN3CCN(c4ccccc4)CC3)co2)cc1	1.75	11.5	3.95	3	0.25	–
c1ccc(CN2CC[C@@H](CNCc3csc(-c4ccccc4)n3)C2)cc1 (stereo in doubt; 4q)	5.05	8.85	0.66	7.9	0.39	–
c1ccc(CN2CC[C@@H](CNCc3csc(-c4ccccc4)n3)C2)cc1 (stereo in doubt)	6.4	13.5	0.88	7.95	–	0.39
COc1ccc(Br)cc1-c1nc(CN2CCN(c3ccccc3)CC2)cs1	0.44	1.25	1.19	0.61	0.59	–
COc1ccc(Br)cc1-c1nc(CNC[C@@H]2CCN(Cc3ccccc3)C2)co1 [listing 1 of 2 here]	0.21	6.75	0.083	0.51	0.02	–
c1ccc(CN2CCN(Cc3coc(-c4ccccc4)n3)CC2)cc1	21.5	72	8.4	27.5	1.45	–
COc1c(-c2nc(CNC[C@@H]3CCN(Cc4ccccc4)C3)co2)cc(Br)c2ccccc12	17.5	100	5.85	45.5	15.5	–
COc1ccc(Br)cc1-c1nc(CNC[C@@H]2CCN(Cc3ccccc3)C2)co1 [listing 2 of 2 here]	0.245	3.5	0.065	0.32	0.011	–
COc1ccc(Br)cc1-c1nc(CN2CCN(Cc3ccccc3)CC2)co1	0.79	15.5	1.05	1.5	0.71	–
COc1ccc(Br)cc1-c1nc(CN[C@@H]2CCN(Cc3ccccc3)C2)co1 [listing 1 of 2 here]	6.6	16	1.85	8.25	0.51	–
COc1ccc(Br)cc1-c1nc(CN[C@@H]2CCN(Cc3ccccc3)C2)co1 [listing 2 of 2 here]	2	8	1.7	2.45	0.039	–
c1ccc(-c2nc(CN3CCN(c4ccccc4)CC3)cs2)cc1	1.06	19.5	2.05	2.3	0.45	–
COc1ccc(Br)cc1-c1nc(CNC2CCN(Cc3ccccc3)CC2)cs1	0.105	4.5	0.205	0.195	0.4	–
c1ccc(CN2CCN(Cc3csc(-c4ccccc4)n3)CC2)cc1	19.5	9.2	5.25	28	0.59	–
COc1ccc(Br)cc1-c1nc(CN(C)C[C@@H]2CCN(Cc3ccccc3)C2)co1	3.25	5.45	1.2	3.8	0.65	–
COc1ccc(Br)cc1-c1nc(CNCCC2CCN(Cc3ccccc3)C2)co1 (stereo not given)	0.31	6.6	0.075	0.51	0.15	–
Oc1ccc(Br)cc1-c1nc(CN2CCN(c3ccccc3)CC2)co1	4.4	17.5	7.6	6.65	0.58	–
COc1ccc(Br)cc1-c1nc(CNC[C@@H]2CCN(Cc3ccccc3)C2)cs1 [listing 1 of 2 here]	0.28	4.95	0.115	0.42	0.17	–
COc1ccc(Br)cc1-c1nc(CN2CCN(c3ccccc3)CC2)co1	0.33	4.85	0.66	0.69	0.37	–
COc1ccc(Br)cc1-c1nc(CN2CCN(Cc3ccccc3)CC2)cs1	0.085	10.5	0.64	0.21	0.37	–
COc1ccc(Br)cc1-c1nc(CNCC[C@@H]2CCN(Cc3ccccc3)C2)co1	1.1	8.95	0.12	1.07	0.17	–
c1ccc(CN2CCC(NCc3csc(-c4ccccc4)n3)CC2)cc1	13.5	6.8	2.3	23	0.053	–
COc1ccc(Br)cc1-c1nc(CNC[C@@H]2CCN(Cc3ccccc3)C2)cs1 [listing 2 of 2 here]	0.092	4	0.22	0.185	0.15	–
COc1ccc(Br)cc1-c1ncc(CNC[C@@H]2CCN(Cc3ccccc3)C2)[nH]1	2.75	8.9	1.3	6.25	1.11	–
